Measurements as given in patent publication US11033506B2, “External skin preparation comprising a core-shell structure” (SEKISUI CHEMICAL CO., LTD., priority 2017, dated 2021).

Assay: Octanol/water partition coefficient
Assay type: physicochemical
Conditions: Log10 (octanol phase/aqueous phase), aqueous buffer solution of pH 7
Text: Specifically, the octanol/water partition coefficient can be determined by calculation using an equation: Octanol/water partition coefficient=Log10 (concentration in an octanol phase/concentration in an aqueous phase).

Row | logD (octanol/aqueous buffer solution (pH 7)) | Structure (SMILES) | octanol/water partition coefficient
1 | 4.5 | O=C1CCc2ccc(OCCCCN3CCN(c4cccc(Cl)c4Cl)CC3)cc2N1 [aripiprazole] | 4.5
2 | – | O=C(O)c1cc(/N=N/c2ccc(S(=O)(=O)Nc3ccccn3)cc2)ccc1O [sulfasalazine] | 2.3
